We go through two molecules from publication PMC10907465 (Inflammopharmacology, 2023).

Common to all, as to assay type: in vivo, rat
The test system of assay [1] is lung tissues. The assay can be described thus: LPS-induced ALI in rats: H&E histopathology and histological scoring of pulmonary inflammation. The settings on record: for Proportion of airspace area: airspace area / total area of one view, 400×; for Incidence of congestion / Incidence of hemorrhage / Severity of neutrophil infiltration: lung H&E. On the procedure: (§1) Thirty-five free pathogenic Sprague–Dawley male albino rats (100–120 g) were obtained from the Egyptian Drug Authority (EDA) animal house. Randomly, the animals were divided into seven groups, (each 5 rats) as follows: Group I: normal control group, Group II: positive control group on the 7th day only received LPS (Lipopolysaccharides) at a dose of 10 mg/kg bw. i.p. suspended in sterile saline solution 0.9% (Ijinu et al. [2022]), Group III dexamethasone positive control (5 mg/kg i.p.) (Murillo-Cuesta et al. [2023]) for 7 days followed by LPS single inflammatory dose model (10 mg/kg b. w i.p.). On the 7th day, 1 h after the last dexamethasone dose. […] All animals were anesthetized to obtain blood in heparinized capillary tubes for pro-inflammatory cytokines (TNF-α, IL-1, IL-6, and MPO) ELISA examination in addition to lung tissues for determination of antioxidant enzymes (SOD, Catalase, GSH and MDA), real-time PCR (p38.MAPK14 and CY450P2E1), western blot (NF-κB p65), histological lung tissue scoring and immunohistochemistry examination (TGF-β1).
Lung tissues were collected and fixed in 10% neutral buffered formaldehyde for 24 h to stabilize and fix tissue proteins. Dehydration, clearing, and paraffin infiltration and embedding were performed, and then wax blocks were sectioned by microtome into 5 µ sections and stained with Hematoxylin and Eosin Stain. Hematoxylin staining was performed according Ehrlich's Hematoxylin (Ehrlich [1886]) and eosin staining was done according to Avwioro ([2011]). Anti-Transforming Growth Factor-β (TGF-β) antibody immunohistochemistry stain (Arigo Biolaboratories, ARG 56429) was also performed, and Immuno-histochemical staining was performed according to Bajracharya et al. ([2017]). The same position of the lungs in five […] was observed through a microscope, and the histological lesion of the lung was evaluated through the incidence of congestion, inflammation, and hemorrhage, severity scoring of neutrophil infiltrates, and proportion of airspace areas. The level of severity was judged from – to +++, representing none to severe. The airspace proportion is the ratio of the airspace area and the total area of one view under 400 × magnifications (Wang et al. [2018]). According to Xue et al. ([2011]) & Ai-Li Huang et al. ([2014]): the semi-quantitative criterion for TGF-β1 staining intensity was estimated using a four-tiered scoring system: negative (−), no staining at all; weak (+), weak staining regardless of positive cell percentages or moderate staining of ≤ 30% of cells; moderate (++), moderate staining of > 30% of cells or strong staining of ≤ 50% of cells; strong (+++), strong staining of > 50% of cells. Low expression of TGF-β1 was defined as (-) or ( +), and High expression was defined as (++) or (+++).

The test system of assay [2] is MDA. The assay is described as follows: LPS-induced ALI in rats: pulmonary MDA. The following applies: lung tissue. On the procedure:
as §1

Assay [3] has as its system SOD. The assay can be described thus: LPS-induced ALI in rats: pulmonary SOD. The settings on record: lung tissue. On the procedure:
as §1

Assay [4] deals with NF-κB p65. The following applies: western blot, lung, relative band intensity (ratio of AU to internal control), rats. On the procedure: (§2) Thirty-five free pathogenic Sprague–Dawley male albino rats (100–120 g) were obtained from the Egyptian Drug Authority (EDA) animal house. Randomly, the animals were divided into seven groups, (each 5 rats) as follows: Group I: normal control group, Group II: positive control group on the 7th day only received LPS (Lipopolysaccharides) at a dose of 10 mg/kg bw. i.p. suspended in sterile saline solution 0.9% (Ijinu et al. [2022]), Group III dexamethasone positive control (5 mg/kg i.p.) (Murillo-Cuesta et al. [2023]) for 7 days followed by LPS single inflammatory dose model (10 mg/kg b. w i.p.). On the 7th day, 1 h after the last dexamethasone dose. […]
Samples were separated on a polyacrylamide gel; the procedure was abbreviated as SDS-PAGE, or Sodium Dodecyl Sulfate Polyacrylamide Gel Electrophoresis, a standard technique for separating proteins according to their molecular weight. […] Imaging and data analysis quantitation: The chemiluminescent substrate (Clarity TM Western ECL substrate, Bio-Rad cat# 170-5060) was applied to the blot according to the manufacturer’s recommendation.
(A western blot detects proteins with antibodies after separation by electrophoresis.)

The subject of assay [5] is TGF-β1. The following applies: rats. The method, then:
as §2
Lung tissues were collected and fixed in 10% neutral buffered formaldehyde for 24 h to stabilize and fix tissue proteins. […] The same position of the lungs in five mice was observed through a microscope, and the histological lesion of the lung was evaluated through the incidence of congestion, inflammation, and hemorrhage, severity scoring of neutrophil infiltrates, and proportion of airspace areas. […]

The test system of assay [6] is P38.MAPK14. The assay is described as follows: LPS-induced ALI in rats: real-time PCR of P38 MAPK gene in lung. The settings on record: lung tissue. On the procedure: as §2
(§3) Primers were utilized in a 25- µl reaction containing 12.5 µl of the 2 × QuantiTect SYBR Green PCR Master Mix (StrateGene® MX3005P, Qiagen, Germany), 0.25 µl of Revert Aid reverse transcriptase (200 U/µL) (Thermo Fisher, Germany), 0.5 µl of each primer of 20 pmol concentration, 8.25 µl of water, and 3 µl of RNA template. […] Amplification curves and Ct values were determined by the Strata gene MX3005P software, version 3 (Agilent, California, USA). […]
(Real-time PCR tracks product formation cycle by cycle.)

Assay [7] concerns TNF-α. The following applies: ELISA, rats. On the procedure: as §1
(§4) Rat TNF-α (Catalog No: MBS2507393 96 T/48 T/24 T), IL-6 (Catalog No: MBS355410), IL-1β (Catalog no. MBS825017), MPO (Catalog No. MBS2019590) ELISA kits were obtained from MyBiosource, San Diego, USA.
In general terms: An ELISA detects its analyte on a solid surface through an enzyme-linked reagent.

In assay [8] the test system is MPO. The settings on record: ELISA, rats. On the procedure: as §1, §4
Assay [9] concerns GSH. The assay is described as follows: LPS-induced ALI in rats: pulmonary GSH. The following applies: lung tissue. On the procedure: as §1
Assay [10] concerns Catalase. The assay is described as follows: LPS-induced ALI in rats: pulmonary catalase. The following applies: lung tissue. The method, then: as §1
Assay [11] relates to IL-1β. The assay can be described thus: LPS-induced ALI in rats: IL-1β ELISA. The method, then: as §1, §4
For assay [12], the system named is IL-6. The assay is described as follows: LPS-induced ALI in rats: IL-6 ELISA. The method, then:
as §1, §4

Assay [13] deals with CY450P2E1. The assay is described as follows: LPS-induced ALI in rats: real-time PCR of CY450P2E1 gene in lung. The settings on record: lung tissue. On the procedure: as §2, §3
Where [14] appears, read: dexamethasone 5 mg/kg i.p. 7 days + LPS 10 mg/kg i.p.

Where two headings read alike, the source gives them in different places.

`C[C@@H]1C[C@H]2[C@@H]3CCC4=CC(=O)C=C[C@]4(C)[C@@]3(F)[C@@H](O)C[C@]2(C)[C@@]1(O)C(=O)CO` [Dexamethasone, dexamethasone]: in assay [1] (setting [14]), the “Proportion of airspace area” value is 4.89%; the “H&E histological examination of lung tissue (finding in words)” value is on record as “collapsed alveoli in some areas, while other areas showed emphysema”; the Incidence of congestion is on record as 4/8; the Incidence of hemorrhage is reported as 1/8. Also, the “Severity of neutrophil infiltration” value in assay [1] (setting [14]) is given as “++”. The MDA in assay [2] (setting [14]) was 20.69 ± 2.49^***b. For the same molecule, in assay [3] (setting [14]), the SOD is on record as 0.8047 ± 0.041^*b. In [4] (setting [14]), the Nf-ĸB stood at 3.907 ± 0.048. Also, in [5] (setting [14]), the “TGF-β1 immunohistochemical expression in lung” value is “+ +”. For the same molecule, the “P38 MAPK Fold change” value in assay [6] (setting [14]) is given as 3.585 ± 0.2314^***b Fold change. The TNF-α in assay [7] (setting [14]) is 91.27 ± 1.940^***b. Also, the MPO in [8] (setting [14]) is 45.50 ± 2.926^***b. In assay [9] (setting [14]), the GSH is 1.174 ± 0.1565^**b. In addition, the Catalase in assay [10] (setting [14]) is given as 0.098 ± 0.006^*b. Also, the IL-β1 in assay [11] (setting [14]) is listed as 48.77 ± 1.995^***b. Besides, in assay [12] (setting [14]), the IL-6 was 58.87 ± 1.38^***b. The “CY450P2E1 Fold change” value in assay [13] (setting [14]) is given as 5.345 ± 0.3346^***b Fold change.

For the molecule Lipopolysaccharide [LPS], in [1] (LPS 10 mg/kg i.p. only), the “H&E histological examination of lung tissue (finding in words)” value was “collapsed alveoli in some areas, while other areas showed emphysema”; the “Proportion of airspace area” value came to 2.66%; the Incidence of congestion is reported as 5/8; the Incidence of hemorrhage was 2/8. In addition, the “Severity of neutrophil infiltration” value in assay [1] (LPS 10 mg/kg i.p. only) is listed as “++++”. Further, in assay [2] (LPS 10 mg/kg i.p. only), the MDA is 42.15 ± 0.800^***a. The SOD in [3] (LPS 10 mg/kg i.p. only) was 0.4713 ± 0.041^*a. Besides, the Nf-ĸB in assay [4] (LPS 10 mg/kg i.p. only) is reported as 3.973 ± 0.014^***a. Moreover, the “TGF-β1 immunohistochemical expression in lung” value in assay [5] (LPS 10 mg/kg i.p. only) was “+ +”. Further, the “P38 MAPK Fold change” value in assay [6] (LPS 10 mg/kg i.p. only) is listed as 9.682 ± 0.1741^***a Fold change. Further, the TNF-α in assay [7] (LPS 10 mg/kg i.p. only) is 157.0 ± 4.917^***a. Moreover, the MPO in [8] (LPS 10 mg/kg i.p. only) is recorded as 102.4 ± 3.496^***a. The GSH in [9] (LPS 10 mg/kg i.p. only) is 0.4737 ± 0.038^*a. Besides, in assay [10] (LPS 10 mg/kg i.p. only), the Catalase is given as 0.2153 ± 0.001^*a. Besides, the IL-β1 in [11] (LPS 10 mg/kg i.p. only) is recorded as 112.2 ± 3.143^***a. The IL-6 in [12] (LPS 10 mg/kg i.p. only) was 126.1 ± 3.75^***a. Further, the “CY450P2E1 Fold change” value in assay [13] (LPS 10 mg/kg i.p. only) is given as 12.68 ± 0.2038^***a Fold change.
